Results as given in PMC11791359, “A select inhibitor of MORC2 encapsulated by chimeric membranecoated DNA nanocage target alleviation TNBC progression” (Materials Today Bio, 2025).
“Also recorded” adds a separate entry of the source. Blank lines part the entries; values can stand above or below the compound they belong to. Residues, ends and D or L forms follow the SMILES beside them. *: point of attachment. Cbz = O=C(OCc1ccccc1)*; CH2F = FC*

Tests used:
MDA-MB-231 cells = assay: CCK8 assay, MDA-MB-231; assay type: cell-based, human; conditions: CCK8, MDA-MB-231, 24 h
Description: (§1) MDA-MB-231 and MDA-MB-468 cells were inoculated on 96-well plates with 5×10^3 cells per well, and then different small molecule drugs were added according to study requirements after the cell culture reached the appropriate density. Twenty-four hours after treatment, CCK-8 reagent was added to each well and incubated for 2 hours. Then, the absorbance of each well was measured at 450 nm using an enzyme-labeler to calculate the relative survival rate of cells.

[1] = Pharmacokinetic study, single intravenous injection; set-up: species or system Sprague-Dawley (SD) rats; conditions: Sprague-Dawley, rat, in vivo
Description: A pharmacokinetic (PK) study was performed to assess whether PMD could improve Angoline's systemic circulation and extend its half-life. Following a single intravenous injection of various formulations into Sprague-Dawley (SD) rats, blood samples were collected at predetermined time points and analyzed using HPLC. As illustrated in Fig. S19A and summarized in Table 1, the plasma concentration-time curves and PK parameters are presented. […] Furthermore, the data obtained from the area under the concentration-time curve (AUC) further confirmed the enhanced PK properties. Thus, the biomimetic nanodrug delivery system (PMD) confers Angoline with enhanced PK properties, attributed to its high stability and sustained drug release kinetics.

TNBC cells [2] = assay: Apoptosis by flow cytometry (Annexin V-FITC/PI); assay type: cell-based, human
Description: (§2) The treated cells were digested with pancreatic enzymes and then were collected and washed with PBS. The cells were immobilized with pre-cooled 70% ethanol at 4 ℃ for 12-24 hours, and then centrifuged, washed, and suspended to ensure uniform cell dispersion. Propyridine iodide staining solution was added to each cell sample and incubated without light at 37 ℃ for 30 minutes. Subsequently, the labeled cells were subjected to cell cycle analysis using flow cytometer (Beckman Coulter, USA), and the results were processed by FlowJo software. For the apoptosis assay, 1 × 10^5 cells per sample were collected into 1.5 mL centrifuge tubes and were re-suspended with 195 μL Annexin V-FITC binding solution. Then, 5 μL Annexin V-FITC and 10 μL PI dyeing solution were added into every sample to re-suspend the cells and incubated at 20-25 °C for 20 minutes. Flow cytometry was used to detect red fluorescence at 638 nm and green fluorescence at 488 nm, and the apoptosis results were analysed by FlowJo software.

TNBC cells [3] = assay: Cell cycle by flow cytometry; assay type: cell-based, human; conditions: TNBC cells after Angoline treatment
Description: as §2

MDA-MB-468 cells = assay: CCK8 assay, MDA-MB-468; assay type: cell-based, human; conditions: CCK8, MDA-MB-468, 24 h
Description: as §1

[4] = tested on: phosphotyrosine STAT3 (p-STAT3); assay: Western blot of p-STAT3 in TNBC cells; assay type: cell-based, human
Description: Disruption of the IL6/STAT3 signaling pathway can induce cell cycle arrest and apoptosis, which may contribute to the tumor cell death observed in our study following Angoline treatment. Thus, WB analysis was performed to verify our hypothesis. […] These changes were also observed in tumor-bearing mice treated with Angoline (Fig. 3G). Thus, Angoline may also killing the TNBC cells by inhibiting the IL6/STAT3 signaling pathway.
TNBC cells were inoculated in 10-cm plates with 50–60% confluence and incubated for 24 hours. Then, after cleaning the cells with PBS three times, the total proteins of cells were harvested by adding the RIPA lysis buffer and 1% Phenylmethanesulfonyl Fluoride (PMSF) into the plates and scraping off the lysed cells. The total proteins were calculated by the BCA protein estimation assay and were isolated by 10% SDS‒PAGE. The protein was transferred onto the PVDF membrane and then blocked with 5% skim milk powder for 2 hours. The protein bands were probed with corresponding antibodies and incubated at 4 °C overnight. Then, the secondary antibodies were added and incubated 1 h at room temperature. Finally, the membranes were detected by the enhanced chemiluminescence detection system.

MCF-10A cells = assay type: cell-based, human
Description: Furthermore, the toxicity and side effects of PMD (Angoline) were evaluated through a comprehensive series of experiments. Firstly, normal breast epithelial cells (MCF-10A) were used to assess drug toxicity. […] Furthermore, we tested the immune-promoting cytokines, such as TNF-α, IL-1β and IL-6.

[5] = tested on: IL6/STAT3 signaling pathway; set-up: method as in PMID 24863036; conditions: cited from earlier work
4T1 cells = assay: CCK8 assay, 4T1; assay type: cell-based, mouse; conditions: CCK8, 4T1
Description: CCK8 assay was performed to confirm the optimal killing concentration of Angoline on TNBC cells (MDA-MB-231, MDA-MB-468, and 4T1) in vitro. […] Thus, we further verified our speculation by detecting the cell viability and apoptosis rate of TNBC cells treated with Angoline and/or apoptosis inhibitor (Z-VAD-FMK). As expected, the toxic effect of Angoline on TNBC cells was reduced by Z-VAD-FMK (Fig. 2F). […] Also, YO-PRO-1 staining confirmed that the proportion of apoptotic cells was reduced when Z-VAD-FMK was added in the Angoline treated group (Fig. 2H). […] While, the detailed pro-apoptotic mechanism needs to be further elucidated.

MORC2 protein = target: T1, MORC2 protein (Homo sapiens, UniProt Q9Y6X9); assay: SPR molecular interaction, MORC2 protein (WT); assay type: binding
T1 construct: 6xHis; made in house; host or cells: Escherichia coli BL21
T1 sequence (Q9Y6X9 1-1032): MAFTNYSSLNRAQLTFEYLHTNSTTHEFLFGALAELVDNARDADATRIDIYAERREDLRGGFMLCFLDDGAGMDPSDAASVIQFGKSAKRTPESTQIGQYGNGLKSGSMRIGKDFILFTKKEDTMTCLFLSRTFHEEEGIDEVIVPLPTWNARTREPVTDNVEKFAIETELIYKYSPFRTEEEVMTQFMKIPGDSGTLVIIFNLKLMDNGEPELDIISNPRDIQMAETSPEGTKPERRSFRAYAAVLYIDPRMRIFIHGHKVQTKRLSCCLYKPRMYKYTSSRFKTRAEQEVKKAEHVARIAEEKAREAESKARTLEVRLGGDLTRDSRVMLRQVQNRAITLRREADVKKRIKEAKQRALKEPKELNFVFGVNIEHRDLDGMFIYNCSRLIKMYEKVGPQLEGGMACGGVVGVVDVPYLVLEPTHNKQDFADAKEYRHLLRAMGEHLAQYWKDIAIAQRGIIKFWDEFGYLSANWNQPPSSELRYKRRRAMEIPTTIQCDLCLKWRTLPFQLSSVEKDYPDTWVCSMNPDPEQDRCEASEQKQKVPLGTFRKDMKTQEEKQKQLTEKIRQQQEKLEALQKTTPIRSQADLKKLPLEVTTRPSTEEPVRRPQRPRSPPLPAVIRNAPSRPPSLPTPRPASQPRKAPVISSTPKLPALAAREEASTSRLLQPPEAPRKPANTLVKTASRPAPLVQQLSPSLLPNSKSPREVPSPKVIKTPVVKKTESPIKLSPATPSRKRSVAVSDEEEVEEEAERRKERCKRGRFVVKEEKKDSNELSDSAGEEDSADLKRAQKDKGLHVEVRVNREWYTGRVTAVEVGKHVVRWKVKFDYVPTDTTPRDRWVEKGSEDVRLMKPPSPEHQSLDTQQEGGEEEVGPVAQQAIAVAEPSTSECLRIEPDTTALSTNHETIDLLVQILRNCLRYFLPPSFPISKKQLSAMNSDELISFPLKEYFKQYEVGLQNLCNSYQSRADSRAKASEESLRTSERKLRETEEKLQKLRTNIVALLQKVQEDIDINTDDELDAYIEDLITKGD
Description: Topscience biological small molecule compound library was used to virtually screen out the potential small molecules by computer molecular docking. […] Then, a series of experiments were conducted to evaluate the binding ability between small molecule compounds and MORC2 protein. First, the optimal conditions for purification of MORC2 protein were investigated by univariate optimization method. Protein induction experiments were conducted under varying concentrations of IPTG (0 mM, 0.1 mM, 0.2 mM, 0.5 mM, 0.8 mM, 1 mM), temperature gradients (16 °C, 22 °C, 29 °C, 37 °C), and induction time (3 h, 6 h, 8 h, 10 h, 12 h). Finally, at 0.1 mM IPTG concentration, especially at 22 °C for 8 h, MORC2 protein expression reached the optimal level, which was verified by Coomassie blue staining (Figs. S7A–C). We cleared the other proteins by Binding/Wash Buffer 3 times and eluted the MORC2 protein with imidazole at 40 mM concentration to extract the high purity MORC2 protein (Fig. S7D). MORC2 protein with high purity was obtained according to the above conditions and verified by Coomassie blue staining (Fig. S7E). Then, surface plasmon resonance molecular interaction experiment was performed to detect the binding ability between small molecule compounds and MORC2 protein. […] Also, the binding strength between MORC2 and Angoline was dose-dependent on the concentration of Angoline (Fig. 2C). […]

[6] = tested on: primary TNBC cell xenograft tumors; assay: In vivo antitumor efficacy, primary TNBC xenograft; set-up: species or system BALB/c nude mice
Description: Xenograft tumor models were established by injecting primary TNBC cells under the skin of BALB/c nude mice. Then, one week after implantation, the mice were administered with normal saline, Angoline, PMD and PMD (Angoline) respectively via tail vein injection every 3 days. Also, the tumor volume in mice was measured every three days. […] Finally, all mice were sacrificed three weeks later and xenografts were removed. […] Additionally, significant differences in tumor weight were observed among the four groups (Fig. […]). […] Thus, we performed immunofluorescence staining to analyze the expression of Ki-67 in different groups. […] Furthermore, TUNLE staining was performed to evaluate the apoptosis of tumors treated with different drugs (Fig. 5E). […] PMD(Angoline) was prepared by encapsulating Angoline into tDNAn following the assembly steps mentioned above. Tumor-bearing mice were established using primary TNBC cells obtained from patients, following the methods described in the animal assessment section. Then, those mice were intravenously administrated with saline, Angoline, PMD and PMD(Angoline) every 3 days, respectively. Meanwhile, the tumor volume and mice weight were continuously monitored every 3 days. Ultimately, the mice were sacrificed after three weeks to obtain the tumors and vital organs (heart, liver, spleen, lung and kidney). Ki-67 expression was detected by immunofluorescence to determine the tumor growth in different groups. Also, HE staining was used to determine the damage of different drugs to important organs.

neutrophils = assay: Phagocytosis by neutrophils (fluorescence microscopy); assay type: cell-based, human; conditions: incubated 4 hours
[7] = tested on: TNBC-bearing BALB/c nude mice; assay: In vivo distribution and tumor uptake in TNBC-bearing mice; conditions: tail vein injection, fluorescent in vivo imaging
[8] = tested on: TNBC-bearing BALB/c nude mice; conditions: mouse, in vivo
primary TNBC cells = assay: Uptake by primary TNBC cells (fluorescence microscopy); assay type: cell-based, human; conditions: incubated 6 hours

Compound: COc1ccc2c(c1OC)C(OC)N(C)c1c-2ccc2cc3c(cc12)OCO3 (stereo not shown) [Angoline]
killing effect / inhibitory effect on cell viability (MDA-MB-231 cells): strongest killing effect; also recorded: progressively increased with higher concentrations
C0 [1]: 3670 ± 280 ng/mL
AUC(0-inf) ([1]; SD rats, single i.v.): 15400 ± 190 ng·h/mL
AUC(0-t) ([1]; SD rats, single i.v.): 13200 ± 320 ng·h/mL
Cmax ([1]; SD rats, single i.v.): 3410 ± 150 ng/mL
MRT ([1]; SD rats, single i.v.): 6.08 ± 0.18 h
clearance ([1]; SD rats, single i.v.): 2.29 mL/min
half-life ([1]; SD rats, single i.v.): 4.15 ± 0.06 h
apoptosis rate (TNBC cells [2]; TNBC cells treated with Angoline): significantly increased; also recorded: dramatically increased
cell cycle distribution (TNBC cells [3]): higher proportion of TNBC cells remained in S and G2 phases
killing effect / inhibitory effect on cell viability (MDA-MB-468 cells): strongest killing effect; also recorded: progressively increased with higher concentrations
level of p-STAT3 [4]: significantly reduced
toxicity toward MCF-10A cells (MCF-10A cells): neither Angoline nor PMD (Angoline) exhibited toxicity
suppression of IL6/STAT3 signaling pathway [5]: suppress the IL6/STAT3 signaling pathway
inhibitory effect on cell viability (4T1 cells): progressively increased with higher concentrations
Kd (MORC2 protein): 23.3 nM
primary tumor growth (tumor volume) ([6]; tail vein injection every 3 days, three weeks): significant suppression of the primary tumor growth
apoptosis of tumors (TUNEL staining) ([6]; tumor tissue): significantly higher apoptosis rate compared to the groups treated with saline or PMD
proliferation capacity of tumor cell (Ki-67 immunofluorescence) ([6]; tumor tissue): significantly lower in the Angoline group than that in saline or PMD groups, but higher than PMD(Angoline) group
body weight ([6]; tumor-bearing mice, every 3 days): significantly increased

Compound: COC(=O)C[C@H](NC(=O)[C@H](C)NC(=O)[C@@H](NC(=O)OCc1ccccc1)C(C)C)C(=O)CF [Z-VAD-FMK, reference compound] (Cbz-Val-Ala-Asp(OMe)-CH2F)
effect on the proapoptotic effect of Angoline (TNBC cells [2]; TNBC cells, Angoline plus apoptosis inhibitor): significantly reduce the proapoptotic effect of Angoline

uptake in tumor tissue sections [8]: rarely taken up by tumor cells
Compound: Rhodamine
uptake by neutrophils (neutrophils): neutrophils were entirely covered with red fluorescence
distribution in tumor-bearing mice [7]: rapidly diffused throughout the nude mice and was quickly cleared
uptake by primary TNBC cells (primary TNBC cells): rarely taken up by TNBC cells
